From ChEMBL document CHEMBL3044788, “α-(Substituted-phenoxyacetoxy)-α-heterocyclylmethylphosphonates: synthesis, herbicidal activity, inhibition on pyruvate dehydrogenase complex (PDHc), and application as postemergent herbicide against broadleaf weeds” (J Agric Food Chem, 2013)

Assays:
Beta vulgaris [1] = assay: Herbicidal activity against Beta vulgaris assessed as relative growth inhibition at 50 g/ha in greenhouse by post-emergence herbicidal activity assay; assay type: functional; details: read-out: GI
[2] = Inhibition of Oryza sativa (rice) PDHc by spectrophotometric assay
Amaranthus retroflexus [3] = assay: Herbicidal activity against 2 to 3 leaf stage Amaranthus retroflexus assessed as inhibition of plant growth at 150 g/ha in greenhouse by postemergence herbicidal activity assay; assay type: functional; details: post-emergence, read-out: GI
Amaranthus blitum [4] = assay: Herbicidal activity against Amaranthus blitum assessed as relative growth inhibition at 1200 g/ha in greenhouse by post-emergence herbicidal activity assay; assay type: functional; details: read-out: GI
Pisum sativum = assay: Herbicidal activity against 2 to 3 leaf stage Pisum sativum assessed as inhibition of plant growth at 450 g/ha in greenhouse by postemergence herbicidal activity assay; assay type: functional; details: Lathyrus oleraceus, post-emergence; read-out: GI
Zea mays [5] = assay: Herbicidal activity against Zea mays (maize) assessed as relative growth inhibition at 900 g/ha in greenhouse by postemergence herbicidal activity assay; assay type: organism-based; details: in vivo, other
[6] = Toxicity in orally dosed Rattus norvegicus (rat); assay type: organism-based; details: in vivo, po
Oryza sativa [7] = assay: Herbicidal activity against Oryza sativa (rice) assessed as relative growth inhibition at 1200 g/ha in greenhouse by postemergence herbicidal activity assay; assay type: organism-based; details: in vivo, other
Amaranthus spinosus [8] = assay: Herbicidal activity against Amaranthus spinosus assessed as relative growth inhibition at 100 g/ha in greenhouse by postemergence herbicidal activity assay; assay type: functional; details: post-emergence, read-out: GI
Polygonum aviculare [9] = assay: Herbicidal activity against Polygonum aviculare assessed as relative growth inhibition at 300 g/ha in greenhouse by post-emergence herbicidal activity assay; assay type: functional; details: read-out: GI
Oryza sativa [10] = assay: Herbicidal activity against Oryza sativa (rice) assessed as relative growth inhibition at 600 g/ha in greenhouse by postemergence herbicidal activity assay; assay type: organism-based; details: in vivo, other
[11] = test system: Brassica rapa subsp. oleifera; assay: Herbicidal activity against Brassica rapa subsp. oleifera assessed as inhibition of rape root growth at 450 g/ha by pre-emergence herbicidal activity assay; assay type: functional; details: read-out: GI
Beta vulgaris [12] = assay: Herbicidal activity against Beta vulgaris assessed as relative growth inhibition at 1200 g/ha in greenhouse by post-emergence herbicidal activity assay; assay type: functional; details: read-out: GI
Polygonum aviculare [13] = assay: Herbicidal activity against Polygonum aviculare assessed as relative growth inhibition at 1200 g/ha in greenhouse by post-emergence herbicidal activity assay; assay type: functional; details: read-out: GI
Amaranthus spinosus [14] = assay: Herbicidal activity against Amaranthus spinosus assessed as relative growth inhibition at 900 g/ha in greenhouse by postemergence herbicidal activity assay; assay type: functional; details: post-emergence, read-out: GI
[15] = Toxicity in percutaneously dosed Rattus norvegicus (rat); assay type: organism-based; details: in vivo, topical or ocular
Polygonum aviculare [16] = assay: Herbicidal activity against Polygonum aviculare assessed as relative growth inhibition at 50 g/ha in greenhouse by post-emergence herbicidal activity assay; assay type: functional; details: read-out: GI
Chenopodium album [17] = assay: Herbicidal activity against Chenopodium album assessed as relative growth inhibition at 300 g/ha in greenhouse by post-emergence herbicidal activity assay; assay type: functional; details: read-out: GI
Amaranthus spinosus [18] = assay: Herbicidal activity against Amaranthus spinosus assessed as relative growth inhibition at 450 g/ha in greenhouse by postemergence herbicidal activity assay; assay type: functional; details: post-emergence, read-out: GI
[19] = target: T1, Pyruvate dehydrogenase complex (Pisum sativum, UniProt P52902+P52904); assay: Inhibition of Pisum sativum (pea) PDHc by spectrophotometric assay; assay type: protein-complex assay, Lathyrus oleraceus
T1 sequence (P52902 whole entry): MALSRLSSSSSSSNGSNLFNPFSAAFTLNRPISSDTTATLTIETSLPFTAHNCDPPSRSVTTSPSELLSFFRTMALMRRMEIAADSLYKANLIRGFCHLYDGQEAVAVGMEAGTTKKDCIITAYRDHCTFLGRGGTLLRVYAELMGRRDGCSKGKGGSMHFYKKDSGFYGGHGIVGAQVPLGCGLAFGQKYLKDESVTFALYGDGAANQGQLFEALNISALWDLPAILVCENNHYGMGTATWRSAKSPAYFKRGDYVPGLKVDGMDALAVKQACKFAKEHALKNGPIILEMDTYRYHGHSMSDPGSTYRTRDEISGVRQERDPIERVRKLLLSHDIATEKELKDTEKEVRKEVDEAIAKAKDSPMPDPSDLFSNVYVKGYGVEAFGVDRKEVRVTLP
T1 sequence (P52904 whole entry): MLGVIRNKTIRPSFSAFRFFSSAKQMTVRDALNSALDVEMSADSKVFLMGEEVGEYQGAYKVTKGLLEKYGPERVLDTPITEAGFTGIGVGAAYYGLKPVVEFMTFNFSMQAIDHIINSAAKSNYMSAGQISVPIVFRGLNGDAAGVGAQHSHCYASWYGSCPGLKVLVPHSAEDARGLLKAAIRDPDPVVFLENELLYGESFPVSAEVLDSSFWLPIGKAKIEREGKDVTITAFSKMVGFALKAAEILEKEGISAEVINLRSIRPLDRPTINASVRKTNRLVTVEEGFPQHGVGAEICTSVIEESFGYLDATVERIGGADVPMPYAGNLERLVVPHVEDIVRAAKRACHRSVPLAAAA

[20] = test system: Brassica rapa subsp. oleifera; assay: Herbicidal activity against two to three-leaf stage Brassica rapa subsp. oleifera assessed as inhibition of plant growth at 150 g/ha in greenhouse by postemergence herbicidal activity assay; assay type: functional; details: post-emergence, read-out: GI
Amaranthus retroflexus [21] = assay: Herbicidal activity against 2 to 3 leaf stage Amaranthus retroflexus assessed as inhibition of plant growth at 450 g/ha in greenhouse by postemergence herbicidal activity assay; assay type: functional; details: post-emergence, read-out: GI
Echinochloa crus-galli = assay: Herbicidal activity against 2 to 3 leaf stage Echinochloa crus-galli (barnyard grass) assessed as inhibition of plant growth at 450 g/ha in greenhouse by postemergence herbicidal activity assay; assay type: functional; details: Echinochloa crus-galli, post-emergence; read-out: GI
Amaranthus spinosus [22] = assay: Herbicidal activity against Amaranthus spinosus assessed as relative growth inhibition at 600 g/ha in greenhouse by postemergence herbicidal activity assay; assay type: functional; details: post-emergence, read-out: GI
Oryza sativa [23] = assay: Herbicidal activity against two to three-leaf stage Oryza sativa (rice) assessed as inhibition of plant growth at 450 g/ha in greenhouse by postemergence herbicidal activity assay; assay type: organism-based; details: in vivo, other
Polygonum aviculare [24] = assay: Herbicidal activity against Polygonum aviculare assessed as relative growth inhibition at 200 g/ha in greenhouse by post-emergence herbicidal activity assay; assay type: functional; details: read-out: GI
Zea mays [25] = assay: Herbicidal activity against Zea mays (maize) assessed as relative growth inhibition at 1200 g/ha in greenhouse by postemergence herbicidal activity assay; assay type: organism-based; details: in vivo, other
Amaranthus blitum [26] = assay: Herbicidal activity against Amaranthus blitum assessed as relative growth inhibition at 450 g/ha in greenhouse by post-emergence herbicidal activity assay; assay type: functional; details: read-out: GI
Amaranthus blitum [27] = assay: Herbicidal activity against Amaranthus blitum assessed as relative growth inhibition at 600 g/ha in greenhouse by post-emergence herbicidal activity assay; assay type: functional; details: read-out: GI
Beta vulgaris [28] = assay: Herbicidal activity against Beta vulgaris assessed as relative growth inhibition at 450 g/ha in greenhouse by post-emergence herbicidal activity assay; assay type: functional; details: read-out: GI
Eclipta prostrata = assay: Herbicidal activity against two to three-leaf stage Eclipta prostrata assessed as inhibition of plant growth at 150 g/ha in greenhouse by post-emergence herbicidal activity assay; assay type: functional; details: read-out: GI
Beta vulgaris [29] = assay: Herbicidal activity against Beta vulgaris assessed as relative growth inhibition at 300 g/ha in greenhouse by post-emergence herbicidal activity assay; assay type: functional; details: read-out: GI
[30] = test system: Brassica rapa subsp. oleifera; assay: Herbicidal activity against Brassica rapa subsp. oleifera assessed as inhibition of rape root growth at 450 g/ha by postemergence herbicidal activity assay; assay type: functional; details: post-emergence, read-out: GI
Chenopodium album [31] = assay: Herbicidal activity against Chenopodium album assessed as relative growth inhibition at 50 g/ha in greenhouse by post-emergence herbicidal activity assay; assay type: functional; details: read-out: GI

## COP(=O)(OC)C(OC(=O)COc1ccc(Cl)cc1Cl)c1ccco1 (centres undefined)
Beta vulgaris [1]
  inhibition of growth at 50 g/ha: 80%
[2]
  IC50: 704 µM
Amaranthus retroflexus [3]
  inhibition of growth at 150 g/ha: 95%
Amaranthus blitum [4]
  inhibition of growth at 1200 g/ha: 100%
Pisum sativum
  inhibition of growth at 450 g/ha: 90%
Zea mays [5]
  growth inhibition (GI): 0%
[6]
  LD50: 2700 mg/kg
Oryza sativa [7]
  growth inhibition (GI): 20%
Amaranthus spinosus [8]
  inhibition of growth at 100 g/ha: 90%
Polygonum aviculare [9]
  inhibition of growth at 300 g/ha: 91%
Oryza sativa [10]
  growth inhibition (GI): 0%
[11]
  inhibition of growth at 450 g/ha: 94%
Beta vulgaris [12]
  inhibition of growth at 1200 g/ha: 100%
Polygonum aviculare [13]
  inhibition of growth at 1200 g/ha: 100%
Amaranthus spinosus [14]
  inhibition of growth at 900 g/ha: 100%
[15]
  LD50: > 2000 mg/kg
Polygonum aviculare [16]
  inhibition of growth at 50 g/ha: 70%
Chenopodium album [17]
  inhibition of growth at 300 g/ha: 100%
Amaranthus spinosus [18]
  inhibition of growth at 450 g/ha: 100%
[19]
  IC50: 28.3 µM
[20]
  inhibition of growth at 150 g/ha: 95%
Amaranthus retroflexus [21]
  inhibition of growth at 450 g/ha: 100%
Echinochloa crus-galli
  inhibition of growth at 450 g/ha: 25%
Amaranthus spinosus [22]
  inhibition of growth at 600 g/ha: 100%
Oryza sativa [23]
  growth inhibition (GI): 10%
Polygonum aviculare [24]
  inhibition of growth at 200 g/ha: 85%
Zea mays [25]
  growth inhibition (GI): 10%
Amaranthus blitum [26]
  inhibition of growth at 450 g/ha: 100%
Amaranthus blitum [27]
  inhibition of growth at 600 g/ha: 100%
Beta vulgaris [28]
  inhibition of growth at 450 g/ha: 100%
Eclipta prostrata
  inhibition of growth at 150 g/ha: 90%
Beta vulgaris [29]
  inhibition of growth at 300 g/ha: 98%
[30]
  inhibition of growth at 450 g/ha: 92%
Chenopodium album [31]
  inhibition of growth at 50 g/ha: 80%
